From patent US20250230159A1, “FUSED HETEROCYCLIC COMPOUNDS AS MODULATORS OF RAS SIGNALLING” (Shenzhen Ionova Life Science Co., Ltd., priority 2022, published 2025)

The compounds below were run against KRAS-G12C/SOS1 interaction (Homo sapiens (Human), UniProt Q07889) (assay: Protein-Protein Interaction (PPI) assay, SOS1-KRAS binding assay kit (HTRF)). Conditions: not given.
Procedure: This Example illustrates that exemplary compounds of the present invention blockade the interaction of SOS1 to KRAS protein.
The ability of a compound of Formula (I) to block the interaction of SOS1 to KRAS was measured using a SOS1-KRAS binding assay kit (CAT #63ADK000CB16PEG, Cisbio). Utilizing HTRF (Homogeneous Time-resolved Fluorescence) technology, the assay enables simple and rapid characterization of compound and antibody blockers in a high throughput format. The interaction between Tag1-SOS1 and Tag2-KRAS-G12C is detected by using anti-Tag1-Terbium antibody (HTRF donor) and anti-Tag2-XL665 antibody (HTRF acceptor). When the donor and acceptor antibodies are brought into close proximity due to SOS1 and KRAS-G12C binding, excitation of the donor antibody triggers fluorescent resonance energy transfer (FRET) towards the acceptor antibody, which in turn emits specifically at 665 nm. This specific signal is directly proportional to the extent of KRAS-G12C/SOS1 interaction.
The assay was carried according to the manufacturer's instructions. Compounds at an initial concentration of 10 mM in DMSO were first serially diluted on a 384-well plate using assay buffer at a ratio of 1:3 for a total of 9 concentrations with each of a volume of 20 μL. Blank buffer was included as the negative control. The final compound solution was in the buffer solution with 1% DMSO. Then, in each well of a 384-well plate, a solution of 2 μL compound solution, 4 μL tagged SOS1 and KRAS (G12C) protein stocks, respectively, and 10 μM GTP was incubated for 15 min. 10 μL mixture of […] antibody and anti-Tag1-Terbium antibody was introduced to each individual well. After 2 hours incubation at room temperature, fluorescence readout was measured with a Pelkin Elmer multiple plate reader VICTOR Nivo.
Excitation was from over a range of 245-395 nm, and emission from the donor (emission 1) was detected at […] and emission from the acceptor (emission 2) was detected at (606.5-623.5) nm. The HTRF ratio was calculated using the formula: (emission 1 @665 nm/emission 2 @620 nm)×10000. Thus, compounds blocking KRAS-G12C/SOS1 interaction will cause a reduction in HTRF signal ratio. The IC50 values were then calculated with the Graph pad Prism software.

Sequence of KRAS-G12C/SOS1 interaction (Q07889 whole entry, stated change not applied): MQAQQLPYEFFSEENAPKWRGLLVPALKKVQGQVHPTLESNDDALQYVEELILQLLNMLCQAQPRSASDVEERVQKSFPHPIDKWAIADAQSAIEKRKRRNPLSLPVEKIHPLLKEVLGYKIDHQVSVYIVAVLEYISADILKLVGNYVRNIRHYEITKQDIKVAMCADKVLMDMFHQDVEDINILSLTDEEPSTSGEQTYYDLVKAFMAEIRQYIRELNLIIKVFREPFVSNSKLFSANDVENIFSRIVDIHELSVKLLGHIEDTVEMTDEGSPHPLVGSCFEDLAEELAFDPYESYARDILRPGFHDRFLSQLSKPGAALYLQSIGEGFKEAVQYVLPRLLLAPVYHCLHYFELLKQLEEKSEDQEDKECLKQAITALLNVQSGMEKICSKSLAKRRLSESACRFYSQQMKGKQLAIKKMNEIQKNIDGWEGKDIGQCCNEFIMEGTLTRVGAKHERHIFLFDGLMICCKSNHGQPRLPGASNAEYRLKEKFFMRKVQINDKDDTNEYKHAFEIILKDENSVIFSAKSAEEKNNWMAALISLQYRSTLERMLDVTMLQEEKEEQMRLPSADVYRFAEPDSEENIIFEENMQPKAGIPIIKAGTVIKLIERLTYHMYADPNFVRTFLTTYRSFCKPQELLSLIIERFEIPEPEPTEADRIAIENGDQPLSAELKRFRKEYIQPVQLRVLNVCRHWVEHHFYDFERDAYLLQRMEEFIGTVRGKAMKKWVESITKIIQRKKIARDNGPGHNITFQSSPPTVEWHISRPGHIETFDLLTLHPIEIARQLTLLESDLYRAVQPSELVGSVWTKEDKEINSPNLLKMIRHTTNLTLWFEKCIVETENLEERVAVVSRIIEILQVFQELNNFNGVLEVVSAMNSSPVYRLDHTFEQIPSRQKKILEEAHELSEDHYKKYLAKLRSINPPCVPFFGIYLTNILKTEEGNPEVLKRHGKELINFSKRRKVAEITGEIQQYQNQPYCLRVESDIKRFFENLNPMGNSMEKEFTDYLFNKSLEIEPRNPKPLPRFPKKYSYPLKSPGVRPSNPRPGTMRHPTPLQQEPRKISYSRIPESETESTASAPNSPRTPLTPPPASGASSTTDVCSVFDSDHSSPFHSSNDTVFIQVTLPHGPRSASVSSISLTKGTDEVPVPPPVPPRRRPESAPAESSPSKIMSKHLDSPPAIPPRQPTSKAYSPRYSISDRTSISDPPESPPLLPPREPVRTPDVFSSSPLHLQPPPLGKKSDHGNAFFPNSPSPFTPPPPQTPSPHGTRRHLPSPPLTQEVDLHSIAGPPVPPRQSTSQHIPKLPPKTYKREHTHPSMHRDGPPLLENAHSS

| IC50 | Structure (SMILES) |
| --- | --- |
| > 0.1 µM | Cc1nc(N[C@H](C)c2cccc(C(F)F)c2F)c2cc(C(=O)N(C(C)C)C(C)C)c3ncnn3c2n1 [Example 7] |
| > 0.1 µM | Cc1nc(N[C@H](C)c2cccc(C(F)F)c2F)c2cc(C(=O)N(C)C3COC3)c3ncnn3c2n1 [Example 8] |
| > 0.1 µM | CNC(=O)c1cc2c(N[C@H](C)c3cccc(C(F)F)c3F)nc(C)nc2n2ncnc12 [Example 9] |
| > 0.1 µM | Cc1nc(N[C@H](C)c2cccc(C(F)F)c2F)c2cc(C(=O)NC(C)(C)C)c3ncnn3c2n1 [Example 10] |
| > 0.1 µM | Cc1nc(N[C@H](C)c2cccc(C(F)F)c2F)c2cc(C(=O)N3CCOC[C@H]3C)c3ncnn3c2n1 [Example 15] |
| > 0.1 µM | Cc1nc(N[C@H](C)c2cccc(C(F)F)c2F)c2cc(C(=O)N3CC4(CCC4)C3)c3ncnn3c2n1 [Example 28] |
| > 0.1 µM | CCOC(=O)c1cc2c(N[C@H](C)c3cccc(C(F)F)c3F)nc(C)nc2n2cnnc12 [Example 53] |
| > 0.1 µM | Cc1nc(N[C@H](C)c2cccc(C(F)F)c2F)c2cc(C(=O)N(C(C)C)C(C)C)c3nnnn3c2n1 [Example 56] |
| > 0.1 µM | Cc1nc(N[C@H](C)c2cccc(C(F)F)c2F)c2cc(C(=O)NC(C)(C)C)c3nnnn3c2n1 [Example 57] |
| > 0.1 µM | Cc1nc(N[C@H](C)c2cccc(C(F)F)c2F)c2cc(N3CCC(F)(F)CC3)c3nncn3c2n1 [Example 75] |
| > 0.1 µM | Cc1nc(N[C@H](C)c2cccc(C(F)F)c2F)c2cc(N3CC(O)C3)c3nncn3c2n1 [Example 77] |
| > 0.1 µM | C[C@@H](Nc1ncnc2c1cc(N1CC(C#N)C1)c1nncn12)c1cccc(C(F)F)c1F [Example 81] |
| > 0.1 µM | CC(=O)N1CC2(C1)CN(c1cc3c(N[C@H](C)c4cccc(C(F)F)c4F)ncnc3n3cnnc13)C2 [Example 82] |
| > 0.1 µM | Cc1c([C@@H](C)Nc2ncnc3c2cc(N2CCOCC2)c2nncn23)cccc1C(F)(F)F [Example 83] |
| > 0.1 µM | C[C@@H](Nc1ncnc2c1cc(N1CCOCC1)c1nncn12)c1cccc(C(F)(F)F)c1F [Example 84] |
| > 0.1 µM | Cc1nc(N[C@H](C)c2cc(N)cc(C(F)(F)F)c2)c2cc(N3CCOCC3)c3nnc(C)n3c2n1 [Example 87] |
| > 0.1 µM | C[C@@H](Nc1ncnc2c1cc(NC1CCS(=O)(=O)CC1)c1nncn12)c1cccc(C(F)F)c1F [Example 89] |
| > 0.1 µM | CC(=O)N1CC=C(c2cc3c(N[C@H](C)c4cccc(C(F)F)c4F)nc(C)nc3n3cnnc23)CC1(C)C [Example 102] |
| > 0.1 µM | CC(=O)N1CC=C(c2cc3c(N[C@H](C)c4cccc(C(F)F)c4F)nc(C)nc3n3cnnc23)C1 [Example 103] |

| Structure (SMILES) | IC50 |
| --- | --- |
| Cc1nc(N[C@H](C)c2cccc(C(F)F)c2F)c2cc(C(=O)N3C4COCC3C4)c3nnnn3c2n1 [Example 65] | > 0.1 µM |
| C[C@@H](Nc1ncnc2c1cc(N1C3COCC1C3)c1nncn12)c1cccc(C(F)F)c1F [Example 80] | > 0.1 µM |

Same assay, conditions: read-out: PPI Assay IC50

| IC50 | Structure (SMILES) |
| --- | --- |
| < 0.1 µM | Cc1nc(N[C@H](C)c2cccc(C(F)F)c2F)c2cc(C(=O)N3CCOC[C@@H]3C)c3ncnn3c2n1 [Example 12] |
| < 0.1 µM | Cc1nc(N[C@H](C)c2cccc(C(F)F)c2F)c2cc(C(=O)N3CCOCC3(C)C)c3ncnn3c2n1 [Example 14] |
| < 0.1 µM | Cc1nc(N[C@H](C)c2cccc(C(F)F)c2F)c2cc(C(=O)N3CCCCC3)c3ncnn3c2n1 [Example 16] |
| < 0.1 µM | Cc1nc(N[C@H](C)c2cccc(C(F)F)c2F)c2cc(C(=O)N3CC(O)C3)c3ncnn3c2n1 [Example 25] |
| < 0.1 µM | CC(=O)N1CC2(CCN2C(=O)c2cc3c(N[C@H](C)c4cccc(C(F)F)c4F)nc(C)nc3n3ncnc23)C1 [Example 30] |
| < 0.1 µM | Cc1nc(N[C@H](C)c2cccc(C(F)F)c2F)c2cc(C(=O)N3CCCC34CCCC4)c3ncnn3c2n1 [Example 32] |
| < 0.1 µM | Cc1nc(N[C@H](C)c2cccc(C(F)F)c2F)c2cc(C(=O)N3CCC4(CCOC4)C3)c3ncnn3c2n1 (some centres unmarked) [Example 34] |
| < 0.1 µM | C[C@@H](Nc1ncnc2c1cc(C(=O)N(C)C)c1ncnn12)c1cccc(C(F)F)c1F [Example 40] |
| < 0.1 µM | C[C@@H](Nc1ncnc2c1cc(C(=O)N1CCN(CCS(C)(=O)=O)CC1)c1ncnn12)c1cccc(C(F)F)c1F [Example 41] |
| < 0.1 µM | C[C@@H](Nc1ncnc2c1cc(C(=O)N1CCC13COC3)c1ncnn12)c1cccc(C(F)F)c1F [Example 43] |
| < 0.1 µM | C[C@@H](Nc1ncnc2c1cc(C(=O)N1CCCC13CCOC3)c1ncnn12)c1cccc(C(F)F)c1F (some centres unmarked) [Example 44] |
| < 0.1 µM | C[C@@H](Nc1ncnc2c1cc(C(=O)N1CCC13CNC3)c1ncnn12)c1cccc(C(F)F)c1F [Example 45] |
| < 0.1 µM | Cc1nc(N[C@H](C)c2cccc(C(F)F)c2F)c2cc(C(=O)N3CCCC34CCOC4)c3nncn3c2n1 (some centres unmarked) [Example 52] |
| < 0.1 µM | Cc1nc(N[C@H](C)c2cccc(C(F)F)c2F)c2cc(C(=O)N3CCOCC3)c3nccn3c2n1 [Example 54, (R)-(4-((1-(3-(difluoromethyl)-2-fluorophenyl)ethyl)amino)-2-methylimidazo[1′,2′:1,6]pyrido[2,3-d]pyrimidin-6-yl)(morpholino)methanone] |
| < 0.1 µM | Cc1nc(N[C@H](C)c2cccc(C(F)F)c2F)c2cc(C(=O)N3CCN(CCS(C)(=O)=O)CC3)c3nnnn3c2n1 [Example 59] |
| < 0.1 µM | CC(=O)N1CC2(CCN2C(=O)c2cc3c(N[C@H](C)c4cccc(C(F)F)c4F)nc(C)nc3n3nnnc23)C1 [Example 61] |
| < 0.1 µM | Cc1nc(N[C@H](C)c2cccc(C(F)F)c2F)c2cc(C(=O)N3CCC34COC4)c3nnnn3c2n1 [Example 63] |
| < 0.1 µM | C[C@H](O)C(=O)N1CCC(c2cc3c(N[C@H](C)c4cccc(C(F)F)c4F)ncnc3n3cnnc23)CC1 [Example 72] |
| < 0.1 µM | CC(=O)N1CC2(C1)CN(c1cc3c(N[C@H](C)c4cccc(C(F)F)c4F)nc(C)nc3n3cnnc13)C2 [Example 78] |
| < 0.1 µM | Cc1nc(N[C@H](C)c2cccc(C(F)F)c2F)c2cc([C@H]3CC[C@@H](O)CC3)c3nncn3c2n1 [Example 90-P1, Cis-4-(4-(((R)-1-(3-(difluoromethyl)-2-fluorophenyl)ethyl)amino)-2-methyl-[1,2,4]triazolo[4′,3′:1,6]pyrido[2,3-d]pyrimidin-6-yl)cyclohexan-1-ol] |
| < 0.1 µM | Cc1nc(N[C@H](C)c2cccc(C(F)F)c2F)c2cc([C@H]3CC[C@H](O)CC3)c3nncn3c2n1 [Example 90-P2, trans-4-(4-(((R)-1-(3-(difluoromethyl)-2-fluorophenyl)ethyl)amino)-2-methyl-[1,2,4]triazolo[4′,3′:1,6]pyrido[2,3-d]pyrimidin-6-yl)cyclohexan-1-ol] |
| < 0.1 µM | Cc1nc(N[C@H](C)c2cccc(C(F)F)c2F)c2cc(N3CC(C(=O)N(C)C)C3)c3nnnn3c2n1 [Example 94] |
| < 0.1 µM | CC(=O)N1CC=C(c2cc3c(N[C@H](C)c4cccc(C(F)F)c4F)nc(C)nc3n3c(C)nnc23)CC1 [Example 104] |
| < 0.1 µM | C[C@@H](Nc1ncnc2c1cc(C1(O)CCS(=O)(=O)CC1)c1nncn12)c1cccc(C(F)F)c1F [Example 110] |
| < 0.1 µM | CC(=O)N1CCC(O)(c2cc3c(N[C@H](C)c4cccc(C(F)F)c4F)nc(C)nc3n3c(C)nnc23)CC1 [Example 111] |
| < 0.1 µM | COC1(c2cc3c(N[C@H](C)c4cc(N)cc(C(F)(F)F)c4)ncnc3n3nnnc23)CCN(C(C)=O)CC1 [Example 126] |
| < 0.1 µM | CC(=O)N1CCC(C)(c2cc3c(N[C@H](C)c4cccc(C(F)F)c4F)ncnc3n3cnnc23)CC1 [Example 128] |
| < 0.1 µM | [2H]C([2H])([2H])OC1(c2cc3c(N[C@H](C)c4cccc(C(F)F)c4F)ncnc3n3cnnc23)CCN(C(C)=O)CC1 [Example 133, (R)-1-(4-(4-((1-(3-(difluoromethyl)-2-fluorophenyl)ethyl)amino)-[1,2,4]triazolo[4′,3′:1,6]pyrido[2,3-d]pyrimidin-6-yl)-4-(methoxy-d3)piperidin-1-yl)ethan-1-one] |

| Structure (SMILES) | IC50 |
| --- | --- |
| C[C@@H](Nc1ncnc2c1cc(C(=O)N1C3COCC1C3)c1ncnn12)c1cccc(C(F)F)c1F [Example 46] | < 0.1 µM |
| C[C@@H](Nc1ncnc2c1cc(C(=O)N1C3CCN(C)CC1C3)c1ncnn12)c1cccc(C(F)F)c1F (some centres unmarked) [Example 48] | < 0.1 µM |
| C[C@@H](Nc1ncnc2c1cc(C(=O)N1C3CCC1COC3)c1ncnn12)c1cccc(C(F)F)c1F [Example 49] | < 0.1 µM |
| Cc1nc(N[C@H](C)c2cccc(C(F)F)c2F)c2cc(C(=O)N3C4CCC3COC4)c3nnnn3c2n1 [Example 64] | < 0.1 µM |
